PMC8597422, “Activity-based protein profiling reveals deubiquitinase and aldehyde dehydrogenase targets of a cyanopyrrolidine probe” (RSC Medicinal Chemistry, 2021)
Blank lines part the entries; values can stand above or below the compound they belong to.

Legend:
USP30 = molecular target: T1, USP30 (Homo sapiens, UniProt Q70CQ3); assay: DUB selectivity panel at […] (FP / FI in vitro assays); type: biochemical
T1 sequence (Q70CQ3 1-517): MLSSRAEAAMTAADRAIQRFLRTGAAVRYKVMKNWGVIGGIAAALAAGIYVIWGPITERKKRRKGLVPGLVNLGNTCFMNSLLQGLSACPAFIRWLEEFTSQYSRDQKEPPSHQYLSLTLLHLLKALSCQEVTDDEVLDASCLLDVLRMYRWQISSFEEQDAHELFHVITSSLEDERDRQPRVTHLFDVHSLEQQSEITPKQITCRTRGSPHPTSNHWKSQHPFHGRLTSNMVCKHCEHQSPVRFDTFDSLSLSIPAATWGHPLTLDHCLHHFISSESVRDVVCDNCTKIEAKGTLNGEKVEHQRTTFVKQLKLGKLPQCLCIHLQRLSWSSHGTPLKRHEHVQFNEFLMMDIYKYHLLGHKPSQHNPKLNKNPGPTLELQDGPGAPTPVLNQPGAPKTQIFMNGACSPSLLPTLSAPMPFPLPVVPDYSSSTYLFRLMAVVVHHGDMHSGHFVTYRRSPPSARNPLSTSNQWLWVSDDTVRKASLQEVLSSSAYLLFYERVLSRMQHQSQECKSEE

ALDH9A1 = ALDH9A1 (Homo sapiens, UniProt P49189); assay: ABPP in HEK293 cells: streptavidin pulldown immunoblot and LFQ chemical proteomics; type: cell-based
[1] = molecular target: T2, Ubiquitin carboxy-terminal hydrolase L1 (UCHL1) (Homo sapiens, UniProt P09936); assay: fluorescence polarization assay with Ub-Lys-TAMRA, […] min preincubation; covalent adduct by LC-ESI-MS; ABPP pulldown; type: biochemical
T2 construct: recombinant UCHL1
T2 sequence (P09936 1-220): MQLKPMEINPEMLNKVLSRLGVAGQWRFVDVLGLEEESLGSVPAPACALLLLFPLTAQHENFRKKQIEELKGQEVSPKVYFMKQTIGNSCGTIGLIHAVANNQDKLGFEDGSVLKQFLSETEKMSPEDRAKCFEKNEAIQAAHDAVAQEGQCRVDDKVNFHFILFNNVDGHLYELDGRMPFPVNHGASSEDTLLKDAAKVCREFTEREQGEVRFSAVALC

ALDH2 [2] = molecular target: T3, ALDH2 (Homo sapiens, UniProt P05091); assay: ABPP in HEK293 cells, LFQ chemical proteomics, competed by MT16-001; type: cell-based
T3 sequence (P05091 18-517): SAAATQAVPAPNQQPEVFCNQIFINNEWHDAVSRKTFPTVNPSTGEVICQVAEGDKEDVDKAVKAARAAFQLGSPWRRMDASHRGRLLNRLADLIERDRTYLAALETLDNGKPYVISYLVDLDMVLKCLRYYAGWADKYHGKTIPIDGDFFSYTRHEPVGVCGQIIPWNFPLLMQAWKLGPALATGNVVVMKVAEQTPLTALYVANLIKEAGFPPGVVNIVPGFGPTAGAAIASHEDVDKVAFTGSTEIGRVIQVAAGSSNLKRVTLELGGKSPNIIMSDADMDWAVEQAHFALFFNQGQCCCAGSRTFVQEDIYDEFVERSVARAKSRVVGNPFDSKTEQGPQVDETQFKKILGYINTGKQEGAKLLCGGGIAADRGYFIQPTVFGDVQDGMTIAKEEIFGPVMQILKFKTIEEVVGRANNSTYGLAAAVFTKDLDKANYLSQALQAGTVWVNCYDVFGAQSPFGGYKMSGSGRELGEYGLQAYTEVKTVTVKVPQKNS

ALDH2 [3] = molecular target: T3, ALDH2; assay: competitive ABPP against MT16-205 in HEK293 cells (LFQ proteomics); type: cell-based
[4] = molecular target: T2, Ubiquitin carboxy-terminal hydrolase L1 (UCHL1); assay: fluorescence polarization assay with Ub-Lys-TAMRA, […] min preincubation; covalent adduct by LC-ESI-MS; cellular HTRF; type: biochemical

Sequence of ALDH9A1 (P49189 whole entry): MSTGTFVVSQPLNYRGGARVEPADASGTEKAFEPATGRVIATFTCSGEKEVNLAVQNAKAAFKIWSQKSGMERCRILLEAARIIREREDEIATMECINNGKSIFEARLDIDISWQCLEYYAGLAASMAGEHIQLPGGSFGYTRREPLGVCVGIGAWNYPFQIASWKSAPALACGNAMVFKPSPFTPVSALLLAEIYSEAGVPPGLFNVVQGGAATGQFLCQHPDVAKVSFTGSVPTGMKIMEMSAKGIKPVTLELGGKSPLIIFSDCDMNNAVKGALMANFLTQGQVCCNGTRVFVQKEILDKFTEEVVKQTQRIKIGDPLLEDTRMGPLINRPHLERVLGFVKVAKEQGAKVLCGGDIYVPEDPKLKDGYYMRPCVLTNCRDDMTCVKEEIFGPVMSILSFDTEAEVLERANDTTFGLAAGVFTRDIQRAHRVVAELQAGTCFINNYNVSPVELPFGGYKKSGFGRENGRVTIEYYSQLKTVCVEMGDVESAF

inhibition at 1 µM (USP30): 50%
Structure (SMILES): N#CN1CC[C@H](C(=O)Nc2nc(-c3ccccc3)cs2)C1 [MT16-009]

IC50 [1]: 600 ± 78 nM
Structure (SMILES): C#Cc1ccc(-c2cnc(NC(=O)[C@H]3CCN(C#N)C3)s2)cc1 [MT16-205]
ABPP in HEK293 cells: streptavidin pulldown immunoblot and LFQ chemical proteomi (ALDH9A1): also ALDH9A1, which was one of the off-targets of MT16-205 in HEK293 cells | ABPP in HEK293 cells, LFQ chemical proteomics, competed by MT16-001 (ALDH2 [2]): ALDH2, ALDH9A1, and GATD3A were confirmed as the genuine targets of MT16-001, MT16-205 and MT16-009

IC50 [4]: 580 ± 25 nM
Structure (SMILES): N#CN1CC[C@H](C(=O)Nc2ncc(-c3ccccc3)s2)C1 [MT16-001]
competitive ABPP against MT16-205 in HEK293 cells (LFQ proteomics) (ALDH2 [3]): Four targets, ALDH2, ALDH9A1, GATD3A and UCHL1, responded to parent compound MT16-001 in a concentration dependent manner.
